Test results reported in patent publication US7410970B2, “Substituted 1,4,-di-piperidin-4-yl-piperazine derivatives and their use as neurokinin antagonists” (Janssen Pharmaceutica, N.V., priority 2002, dated 2008).

How the values were obtained:
h-NK1 receptor = target: T1, h-NK1 receptor (Homo sapiens, UniProt P25103); assay: Binding experiment for h-NK1 receptor: displacement of [3H]-Substance P, CHO cells; settings: cloned human h-NK1 receptors expressed in CHO cells, read-out: h-NK1 pIC50 (converted)
T1 construct: expressed in transfected cells; host or cells: CHO cells
T1 sequence (P25103 whole entry): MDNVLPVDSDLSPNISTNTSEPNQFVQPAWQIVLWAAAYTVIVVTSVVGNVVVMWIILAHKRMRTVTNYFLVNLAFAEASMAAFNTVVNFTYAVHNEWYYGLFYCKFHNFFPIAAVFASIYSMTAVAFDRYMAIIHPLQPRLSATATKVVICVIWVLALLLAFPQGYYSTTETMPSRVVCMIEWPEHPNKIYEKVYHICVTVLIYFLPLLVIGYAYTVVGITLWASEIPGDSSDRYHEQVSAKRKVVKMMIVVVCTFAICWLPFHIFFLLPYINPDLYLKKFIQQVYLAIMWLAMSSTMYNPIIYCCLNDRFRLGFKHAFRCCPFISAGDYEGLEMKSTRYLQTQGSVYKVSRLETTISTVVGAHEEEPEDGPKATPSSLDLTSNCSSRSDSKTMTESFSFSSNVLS
Protocol: (§1) The compounds according to the invention were investigated for interaction with various neurotransmitter receptors, ion channels and transporter binding sites using the radioligand binding technique. Membranes from tissue homogenates or from cells, expressing the receptor or transporter of interests, were incubated with a radioactively labelled substance ([^3H]- or [^125I] ligand) to label a particular receptor. […] Following incubation, labelled membranes were harvested and rinsed with excessive cold buffer to remove non-bound radioactivity by rapid filtration under suction. Membrane bound radioactivity was counted in a scintillation counter and results were expressed in counts per minute (cpm). The compounds were dissolved in DMSO and tested at 10 concentrations ranging from 10^−10 to 10^−5 M. The ability of the compounds according to the invention to displace [^3H]-Substance P from cloned human h-NK1 receptors expressed in CHO cells, to displace [^3H]-SR-48968 from cloned human h-NK2 receptors expressed in Sf9 cells, and to displace [^3H]-SR-142801 from cloned human h-NK3 receptors expressed in CHO cells was evaluated.

h-NK2 receptor = target: T2, h-NK2 receptor (Homo sapiens, UniProt P21452); assay: Binding experiment for h-NK2 receptor: displacement of [3H]-SR-48968, Sf9 cells; settings: cloned human h-NK2 receptors expressed in Sf9 cells, read-out: h-NK2 pIC50 (converted)
T2 construct: expressed in transfected cells; host or cells: Sf9 cells
T2 sequence (P21452 1-398): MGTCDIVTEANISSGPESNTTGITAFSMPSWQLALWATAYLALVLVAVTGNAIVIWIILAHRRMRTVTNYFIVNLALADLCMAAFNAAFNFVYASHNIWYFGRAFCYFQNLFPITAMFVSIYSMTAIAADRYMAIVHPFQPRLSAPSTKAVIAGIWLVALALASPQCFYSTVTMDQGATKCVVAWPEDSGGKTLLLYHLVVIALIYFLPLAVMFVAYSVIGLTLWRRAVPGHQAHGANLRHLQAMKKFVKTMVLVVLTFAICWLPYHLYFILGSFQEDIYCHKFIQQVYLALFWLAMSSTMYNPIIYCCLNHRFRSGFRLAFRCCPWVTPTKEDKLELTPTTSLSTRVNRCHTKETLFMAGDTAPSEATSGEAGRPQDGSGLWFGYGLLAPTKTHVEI
Protocol: as §1

h-NK3 receptor = target: T3, h-NK3 receptor (Homo sapiens, UniProt P29371); assay: Binding experiment for h-NK3 receptor: displacement of [3H]-SR-142801, CHO cells; settings: cloned human h-NK3 receptors expressed in CHO cells, read-out: h-NK3 pIC50 (converted)
T3 construct: expressed in transfected cells; host or cells: CHO cells
T3 sequence (P29371 1-465): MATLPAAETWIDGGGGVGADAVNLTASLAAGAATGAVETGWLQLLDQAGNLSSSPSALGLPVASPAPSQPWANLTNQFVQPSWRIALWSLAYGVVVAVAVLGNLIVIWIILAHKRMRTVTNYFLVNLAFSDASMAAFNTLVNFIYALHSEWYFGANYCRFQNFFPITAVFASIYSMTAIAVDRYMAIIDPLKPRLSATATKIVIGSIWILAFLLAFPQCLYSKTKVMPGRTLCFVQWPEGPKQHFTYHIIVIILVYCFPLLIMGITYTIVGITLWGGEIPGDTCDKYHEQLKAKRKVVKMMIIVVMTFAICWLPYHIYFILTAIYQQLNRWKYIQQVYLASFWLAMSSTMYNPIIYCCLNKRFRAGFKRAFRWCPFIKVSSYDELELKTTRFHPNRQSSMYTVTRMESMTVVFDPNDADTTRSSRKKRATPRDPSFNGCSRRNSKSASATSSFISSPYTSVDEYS
Protocol: as §1

Row | melting point [°C] | IC50 (h-NK1 receptor) [µM] | IC50 (h-NK2 receptor) [µM] | IC50 (h-NK3 receptor) [µM] | Structure (SMILES)
1 | 135 |  |  |  | O=C(c1cc(C(F)(F)F)cc(C(F)(F)F)c1)N1CCC(N2CCN(C3CCN(Cc4nc5ccccc5[nH]4)CC3)CC2)CC1Cc1ccccc1 (stereo not shown) [Compound 7]
2 |  | 0.00794 | 0.398 | 0.398 | COc1cc(N)c(Cl)cc1C(=O)N1CCC(N2CCN([C@H]3CCN(C(=O)c4cc(C(F)(F)F)cc(C(F)(F)F)c4)[C@H](Cc4ccccc4)C3)CC2)CC1 [Compound 64]
